Measured values: patent US20090196871A1, “USE OF 4-PYRIDYLMETHYLPHTHALAZINES FOR CANCER TREATMENT” (priority 2001, published 2009)

How the values were obtained:
[1] = tested on: metastatic colorectal cancer; test: Example 1: combination with oxaplatin/folinic acid/5-fluorouracil chemotherapy in patients; assay type: in vivo, human
Method: 15 Patients with histologically confirmed metastatic colorectal cancer seven of which had previously received adjuvant chemotherapy are treated with a combination of 1-(4-chloro-anilino)-4-(4-pyridylmethyl)phthalazine and a chemotherapy regimen. The chemotherapy regimen is 85 mg/m^2 of oxaplatin on day 1, 200 mg/m^2 of folinic acid given as a 2 hour infusion on days 1 and 2, and S-fluorouracil administered as a bolus at a dose of 400 mg/m^2 followed by 600 mg/m^2 over 22 hours on days 1 and 2. The chemotherapy regimen is given every 14 days. […] The treatment is well-tolerated. […] Stable diseases are observed in 2 patients, minor responses in 3 patients and partial responses in 8 patients.

[2] = tested on: metastatic renal cell carcinoma; test: Example 2: once-daily oral monotherapy in patients; assay type: in vivo, human; settings: 300, 750 or 1000 mg/day once a day orally
Method: Ten patients having metastatic renal cell carcinoma, six of which had previous biologic therapy, are treated with 300, 750 or 1000 mg/day of 1-(4-chloroanilino)-4-(4-pyridyl-methyl)phthalazine administered once a day orally. Seven of the ten patients maintain stable disease for a median of 3 months.

clinical [3] = settings: human, in vivo, po
[4] = tested on: tumor vascular permeability; test: Studies in humans (general statement); set-up: species or system human; settings: in vivo
clinical [5] = settings: human, plasma, po
[6] = Example 3: pharmacokinetic study, twice-daily dosing
Method: (§1) The patients are monitored by dynamic contrast enhanced magnetic resonance imaging (DCE-MRI) of tumors to provide a measure of the bi-dimensional transfer constant (Ki) prior to treatment, on day 2 and after every 28 day cycle. In addition, tumor volume is measured by magnetic resonance imaging every 28 days, and full pharmacokinetic profiles are obtained on days 1 and 28.

advanced solid tumors [7] = test: Example 3: twice-daily oral dosing, safety and DCE-MRI of tumors
Method: as §1

advanced solid tumors [8] = test: Example 4: once-daily oral dosing, Phase I, DCE-MRI, plasma VEGF, toxicity
[9] = combination with chemotherapy, of 15 patients
[10] = among patients on 300, 500 and 1000 mg daily doses, twice daily

- Tmax (clinical [3]): 1 to 2.5 h
- decrease of systemic exposure (AUC) at steady-state compared to day 1 (clinical [3]): approximately 30%
- dose up to which dose proportional increase in exposure is observed (clinical [3]): up to 1000 mg/day
- half-life (clinical [3]): 3 to 6 h
- AUC (clinical [5]): ~114 µM·h
- area under the curve (AUC) ([6]; 300 mg total daily dose): 82 ng·mL·h
- area under the curve (AUC) ([6]; 500 mg total daily dose): 46 ng·mL·h
- area under the curve (AUC) ([6]; 1000 mg total daily dose): 370 ng·mL·h
Compound: Clc1ccc(Nc2nnc(Cc3ccncc3)c3ccccc23)cc1
- minor responses observed [1, 9]: 3 patients
- partial responses observed [1, 9]: 8 patients
- stable diseases observed [1, 9]: 2 patients
- tolerability of the treatment ([1]; combined with oxaplatin, folinic acid, 5-fluorouracil every 14 days, 500, 1000 or 2000 mg/day single daily dose, 15 patients): well-tolerated
- median duration of stable disease [2]: 3 months
- patients maintaining stable disease ([2]; of ten patients): Seven
- effect on tumor vascular permeability in humans [4]: reduce tumor vascular permeability
- tolerability in humans [4]: well tolerated
- grade 1 lethargy (advanced solid tumors [7]; [10]): one
- grade 2 lightheadedness (advanced solid tumors [7]; [10]): 4 patients
- transient grade 3 elevations of liver transaminases (advanced solid tumors [7]; [10]): 2 patients
- biological effect indicated by the study data (advanced solid tumors [7]; twice daily oral): reducing tumor perfusion/vascular permeability and slowing tumor growth
- tolerability / drug-related SAEs (advanced solid tumors [7]; twice daily oral, total daily doses 300-2000 mg): well tolerated with no drug-related SAEs
- reduction in Ki (DCE-MRI) associated with non-progressive disease (advanced solid tumors [8]; colorectal cancer patients with liver metastasis): 50-60%
- rise in plasma VEGF levels (advanced solid tumors [8]; responders at doses >1000 mg/day, within the first 28 days of treatment): up to 5 fold
- dose-limiting toxicity (advanced solid tumors [8]; up to 2000 mg/day once daily): No dose-limiting toxicity
